ChEMBL document CHEMBL3872201, “Synthesis and antiproliferative activity of a natural like glycoconjugate polycyclic compound” (2016)

Experiments:
Assay type in all cases: functional
[1] = Cell cycle arrest in human MDA-MB-231 cells assessed as accumulation at G2/M phase at 10 uM after 72 hrs by propidium iodide staining based flow cytometric analysis (reference value: 19.7%)
[2] = Antiproliferative activity against human LOXIMVI cells after 48 hrs by sulforhodamine B assay; conditions: LOX IMVI
MDA-MB-231 [3] = assay: Effect on cell cycle regulatory protein in human MDA-MB-231 cells assessed as p21 level at 5 uM after 48 hrs by Western blot analysis relative to control
[4] = Antiproliferative activity against human NCI-H322M cells after 48 hrs by sulforhodamine B assay
[5] = Antiproliferative activity against human SW620 cells after 48 hrs by sulforhodamine B assay; conditions: SW-620, 48 h
[6] = Antiproliferative activity against human SF268 cells after 48 hrs by sulforhodamine B assay; conditions: SF-268, 48 h
[7] = Cell cycle arrest in human MDA-MB-231 cells assessed as accumulation at subG0/G1 phase at 10 uM after 24 hrs by propidium iodide staining based flow cytometric analysis (reference value: 7.6%)
MDA-MB-231 [8] = assay: Effect on cell cycle regulatory protein in human MDA-MB-231 cells assessed as cdc2 level at 10 uM after 48 hrs by Western blot analysis relative to control
[9] = Antiproliferative activity against human MDA-MB-435 cells after 48 hrs by sulforhodamine B assay; conditions: MDA-MB-435, 48 h
[10] = Cytotoxicity against human MDA-MB-231 cells assessed as inhibition of cell viability at 5 uM after 48 hrs by MTT assay relative to control; conditions: MDA-MB-231, 48 h
[11] = Antiproliferative activity against human PC3 cells after 48 hrs by sulforhodamine B assay; conditions: PC-3, 48 h
[12] = Antiproliferative activity against human SN12C cells after 48 hrs by sulforhodamine B assay
[13] = Antiproliferative activity against human MOLT4 cells after 48 hrs by sulforhodamine B assay; conditions: MOLT-4, 48 h
[14] = Antiproliferative activity against human Caki1 cells after 48 hrs by sulforhodamine B assay; conditions: CAKI-1, 48 h
[15] = Cell cycle arrest in human MDA-MB-231 cells assessed as accumulation at G0/G1 phase at 10 uM after 24 hrs by propidium iodide staining based flow cytometric analysis (reference value: 66.5%)
[16] = Antiproliferative activity against human MDA-MB-231 cells after 48 hrs by sulforhodamine B assay; conditions: MDA-MB-231, 48 h
[17] = Cytotoxicity against human MDA-MB-231 cells assessed as inhibition of cell viability at 10 uM after 24 hrs by MTT assay relative to control; conditions: MDA-MB-231, 24 h
[18] = Cytotoxicity against human MDA-MB-231 cells assessed as inhibition of cell viability at 5 uM after 24 hrs by MTT assay relative to control; conditions: MDA-MB-231, 24 h
[19] = Antiproliferative activity against human SNB19 cells after 48 hrs by sulforhodamine B assay; conditions: SNB-19, 48 h
[20] = Antiproliferative activity against human T47D cells after 48 hrs by sulforhodamine B assay
[21] = Cell cycle arrest in human MDA-MB-231 cells assessed as accumulation at G0/G1 phase at 5 uM after 48 hrs by propidium iodide staining based flow cytometric analysis (reference value: 67%)
[22] = Cell cycle arrest in human MDA-MB-231 cells assessed as accumulation at subG0/G1 phase at 5 uM after 24 hrs by propidium iodide staining based flow cytometric analysis (reference value: 7.6%)
[23] = Antiproliferative activity against human IGROV1 cells after 48 hrs by sulforhodamine B assay; conditions: IGROV-1, 48 h
[24] = Antiproliferative activity against human HCC2998 cells after 48 hrs by sulforhodamine B assay; conditions: HCC 2998, 48 h
[25] = Antiproliferative activity against human A498 cells after 48 hrs by sulforhodamine B assay; conditions: A498, 48 h
[26] = Cell cycle arrest in human MDA-MB-231 cells assessed as accumulation at subG0/G1 phase at 5 uM after 72 hrs by propidium iodide staining based flow cytometric analysis (reference value: 6.3%)
[27] = read-out: LC50 (the source's name)

## C=C1c2c(C)nn(-c3ccc(C#CCO[C@@H]4O[C@H](CO)[C@@H](O)[C@H](O)[C@H]4O)cc3)c2N(C)C23CC1C1(C)c4c(C)nn(-c5ccc(C#CCO[C@@H]6O[C@H](CO)[C@@H](O)[C@H](O)[C@H]6O)cc5)c4N(C)C(C)(CC12)C3 (stereo partly specified)
[1]
  Activity: 31.1%
[2]
  GI50: 1.37 µM
  TGI: 2.79 µM
[2]; [27]
  CC50: 5.69 µM
MDA-MB-231 [3]
  fold change (FC): 0.2
[4]
  GI50: 1.76 µM
  TGI: 3.75 µM
[4]; [27]
  CC50: 8.01 µM
[5]
  GI50: 1.72 µM
  TGI: 3.77 µM
[5]; [27]
  CC50: 8.29 µM
[6]
  GI50: 1.75 µM
  TGI: 3.57 µM
[6]; [27]
  CC50: 7.27 µM
[7]
  Activity: 2.2%
MDA-MB-231 [8]
  fold change (FC): 0.3
[9]
  GI50: 1.67 µM
  TGI: 3.77 µM
[9]; [27]
  CC50: 8.5 µM
[10]
  inhibition at 5 µM: 68%
[11]
  GI50: 0.7 µM
  TGI: 2.56 µM
[11]; [27]
  CC50: 7.79 µM
[12]
  GI50: 1.38 µM
  TGI: 3.72 µM
[12]; [27]
  CC50: 9.99 µM
[13]
  GI50: 1.28 µM
  TGI: 3.88 µM
[13]; [27]
  CC50: 100 µM
[14]
  GI50: 2.81 µM
  TGI: 11.6 µM
[14]; [27]
  CC50: 49 µM
[15]
  Activity: 52%
[16]
  GI50: 1.5 µM
  TGI: 3.06 µM
[16]; [27]
  CC50: 6.23 µM
[17]
  inhibition at 10 µM: 80%
[18]
  inhibition at 5 µM: 65%
[19]
  GI50: 1.66 µM
  TGI: 3.95 µM
[19]; [27]
  CC50: 9.37 µM
[20]
  GI50: 0.68 µM
  TGI: 6.8 µM
[20]; [27]
  CC50: 100 µM
[21]
  Activity: 64.3%
[22]
  Activity: 7.1%
[23]
  GI50: 1.56 µM
  TGI: 3.95 µM
[23]; [27]
  CC50: 10.1 µM
[24]
  GI50: 1.57 µM
  TGI: 3.15 µM
[24]; [27]
  CC50: 6.32 µM
[25]
  GI50: 1.5 µM
  TGI: 3.18 µM
[25]; [27]
  CC50: 6.72 µM
[26]
  Activity: 4%
